Data as given in patent US20040132643A1 (priority 2004, published 2004).

Key:
SW-1736 cells = details: 1 ng/ml FR901228 for 72 hours
Procedure: (§1) FTC 133 and FTC 236 cells were derived from cultures obtained from the primary tumor (FTC 133) and a nodal metastasis (FTC 236) of a human follicular thyroid carcinoma. […] Anaplastic thyroid carcinoma lines SW-1736 and KAT-4 were derived from primary cultures of human anaplastic thyroid carcinoma tumors.
(§2) Each of these four cell lines was exposed to varying concentrations of FR901228 (0.01 ng/ml, 0.1 ng/ml, 1 ng/ml, 10 ng/ml) for 72 hours, following which cell viability was determined using the 3-[4,5-dimethylthiazol-2-yl]-2,5-diphenyl tetrazoliumbromide (MTT) assay, as described in Mosmann, J Immunol Methods 65:55-63, 1983, and Den Boer et al., Br. J. Haem. 105: 876-882, 2000. The MTT assay is a colorimetric assay of the loss of mitochondrial metabolic activity associated with cell death.

FTC 236 cells = details: 1 ng/ml FR901228 for 72 hours
Procedure: as §1, §2

FTC 133 cells = details: 1 ng/ml FR901228 for 72 hours
Procedure: as §1, §2

KAT-4 cells = details: 1 ng/ml FR901228 for 72 hours
Procedure: as §1, §2

[1] = tested on: TG promoter-enhancer element; experiment: TG-luciferase reporter assay in transfected thyroid carcinoma cells; type: cell-based, human; details: 1 ng/ml FR901228; for enhancement in luciferase activity over that observed in untreated cells / enhancement over RLU observed in untreated cells: TG-luc
Na+/I- symporter [2] = experiment: 125I iodine accumulation study in thyroid carcinoma cells; type: cell-based, human
Procedure: To evaluate the function of the Na^+/I^− symporter, iodine accumulation studies were performed. FTC 133, FTC 236 SW-1736 and KAT-4 cells were treated with 1 ng/ml FR901228 for two or three days, or left untreated. Cells were then incubated in 0.5 ml of Hanks' Balanced Salt Solution (HBSS; Life Technologies, Inc., Eggenstein, Germany) containing approximately 2 μCi carrier-free Na^125I (DuPont NEN, Boston, Mass.) and 30 μM NaI] ^125I for 10 minutes. For perchlorate studies NaCIO4 was added as a 100X solution in HBSS, to a final concentration of 30 and 100 μM, immediately after the addition of radiolabeled iodine. Excess radiolabeled iodine was then removed, and the amount of ^125I accumulated in the cells was determined by gamma counting.

histone deacetylase = experiment: Histone acetylation by immunofluorescence microscopy (anti-acetylated histone H3) in thyroid carcinoma cells; type: cell-based, human; details: 1 ng/ml FR901228 for 72 hours
Procedure: Histone acetylation was detected by immunofluorescence microscopy. In this experimental approach, fixed cells are exposed to a primary antibody that specifically binds to acetylated histones, and then exposed to an FITC-labeled secondary antibody that binds to the primary antibody.
FTC 236 and SW-1736 cells were cultured as described in Example 1, and treated for 72 hours with 1 ng/ml FR901228. Control FTC 236 and SW-1736 received no FR901228, but were otherwise treated identically to the FR901228-exposed cells. After 72 hours, each culture was treated with trypsin, harvested, and subjected to low speed centrifugation to form a cell pellet. Cells from each pellet were placed on microscope slides and fixed with 95% ethanol/5% acetic acid for one minute at room temperature. After fixation, slides were washed twice with phosphate buffered saline (PBS) for 15 minutes, treated with 8% bovine serum albumin in PBS for one hour at room temperature, and washed 15 minutes in PBS.
The fixed cells were then incubated overnight at 4° C. with 5 ug/ml anti-alpha acetylated histone H3 in 2% bovine serum albumin in PBS (antibody obtained from Upstate Biotechnology, Lake Placid N.Y.). Subsequently, cells were washed twice with PBS for five minutes at room temperature and then incubated with horse anti-rabbit FITC-conjugated secondary antibody (from Vector Labs, Burlingame Calif.). […]

Na+/I- symporter [3] = experiment: RT PCR and northern blot analysis of Na+/I- symporter expression in thyroid carcinoma cells; type: cell-based, human
Procedure: (§3) RT PCR and Northern blot analysis are described in detail in a number of standard molecular biology reference works, for example Ausubel et al., Short Protocols in Molecular Biology, John Wiley & Sons, 1998.
(§4) Total RNA was extracted from FR901228-treated and untreated thyroid carcinoma cells using RNA STAT-60 (Tel-Test, Inc.), at 24 hours, 48 hours, and 72 hours following addition of FR901228-containing or control solution to the cell cultures. RNA was also extracted from normal thyroid cells for purposes of comparison. The extracted RNA was used without further modification for northern blots. For RT PCR, the extracted RNA was reverse transcribed into cDNA using standard techniques.
Oligonucleotide primers used for PCR analysis of human Na^+/I^− symporter expression were:
Using these primers, the presence of human Na^+/I^− symporter cDNA template is reflected by a 303 bp PCR product.

[4] = tested on: thymidine kinase (TK) promoter enhancer; experiment: TK-luciferase reporter assay (positive control) in transfected thyroid carcinoma cells; type: cell-based, human; details: 1 ng/ml FR901228
Excerpt: As a positive control, FTC 236 and SW-1736 cells were transfected with a reporter plasmid encoding luciferase operably linked to the thymidine kinase (TK) promoter enhancer. The TK promoter enhancer is a constitutively active promoter element, meaning that it is not thyroid-specific and is fully active in all cell types.
For transfection, FTC 236 and SW-1736 cells were exposed to a transfection mixture of 0.5 micrograms of plasmid DNA, 4.5 microliters TransFast transfection reagent (Promega, Madison Wis.) and 200 microliters of RPMI medium. Plasmid DNA was either a TG-luciferase (TG-luc) construct or a TK-luciferase (TK-luc) construct. All transfections were performed in triplicate.
After incubating cells for one hour with the transfection mixture, cells were cultured in the presence or absence of 1 ng/ml FR901228 for two days. Cells were then harvested and lysed, and an extract of cellular protein was obtained. Total protein concentration in the extract was determined using the Bio-Rad protein assay system (Bio-Rad, Richmond Calif.). Luciferase activity was determined using the Luciferase Assay System (Promega, Madison Wis.), and was normalized to total protein concentration. […]

thyroglobulin = experiment: RT PCR and northern blot analysis of thyroglobulin expression in thyroid carcinoma cells; type: cell-based, human
Procedure: as §3, §4
Oligonucleotide primers used for PCR analysis of human thyroglobulin expression were: […]
Using these primers, the presence of human thyroglobulin cDNA template is reflected by a 219 bp PCR product.

[5] = ATC cells, 72 hours of FR901228 exposure
[6] = FTC cells, 72 hours of FR901228
[7] = FTC cells, RT PCR and northern blot

**Q.** How did the “cytotoxicity (cell viability, MTT assay)” value (SW-1736 cells) turn out when `C/C=C1\NC(=O)[C@H]2CSSCC/C=C/[C@H](CC(=O)N[C@H](C(C)C)C(=O)N2)OC(=O)[C@H](C(C)C)NC1=O` [FR901228] was run?
**A.** The value was “not significantly cytotoxic”.

**Q.** What about the “cytotoxicity (cell viability, MTT assay)” value (FTC 236 cells) of the same molecule?
**A.** The value was “not significantly cytotoxic”.

**Q.** What about the “cytotoxicity (cell viability, MTT assay)” value (FTC 133 cells) of the same molecule?
**A.** The value was “not significantly cytotoxic”.

**Q.** What about the “cytotoxicity (cell viability, MTT assay)” value (KAT-4 cells) of the same molecule?
**A.** Its value is “not significantly cytotoxic”.

**Q.** What about the “relative luciferase units (RLU) in TG-luc transfected cells, TK luc = 100%” value (shortened to “relative luciferase units (RLU) … TK luc = 100%”) ([1]; FTC 133 cells) of the same molecule?
**A.** Its value is “about 1000%”.

**Q.** What about the “enhancement in luciferase activity over that observed in untreated cells” value ([1]; FTC 133 cells) of the same molecule?
**A.** The value was “greater than tenfold”.

**Q.** And the “relative luciferase units (RLU) … TK luc = 100%” value ([1]; FTC 236 cells)?
**A.** The value was “about 1000%”.

**Q.** And the “enhancement in luciferase activity over that observed in untreated cells” value ([1]; FTC 236 cells)?
**A.** Its value is “greater than tenfold”.

**Q.** And the “relative luciferase units (RLU) … TK luc = 100%” value ([1]; KAT-4 cells)?
**A.** The value was 400-500%.

**Q.** What about the “enhancement over RLU observed in untreated cells” value ([1]; KAT-4 cells) of the same molecule?
**A.** The value was “greater than ten-fold”.

**Q.** What about the “relative luciferase units (RLU) … TK luc = 100%” value ([1]; SW-1736 cells) of the same molecule?
**A.** The value was 400-500%.

**Q.** What about the “enhancement over RLU observed in untreated cells” value ([1]; SW-1736 cells) of the same molecule?
**A.** Its value is “greater than ten-fold”.

**Q.** And the “iodine (125I) accumulation” value (Na+/I- symporter [2]; four cell lines (FTC 133, FTC 236, SW-1736, KAT-4), 1 ng/ml FR901228, two and three days)?
**A.** The value was “Marked increases”.

**Q.** What about the “histone acetylation (nuclear fluorescence) relative to the control cells” value (histone deacetylase; FTC 236 cells) of the same molecule?
**A.** Its value is “marked increase”.

**Q.** And the “histone acetylation (nuclear fluorescence) relative to the control cells” value (histone deacetylase; SW-1736 cells)?
**A.** Its value is “marked increase”.

**Q.** And the “time after FR901228 at which increased Na+/I- symporter expression was first observed” value (Na+/I- symporter [3]; ATC cells)?
**A.** The value was 48 h.

**Q.** And the “Na+/I- symporter expression after 72 hours” value (Na+/I- symporter [3]; [5])?
**A.** The value was “further increases”.

**Q.** What about the “Na+/I- symporter expression after 72 hours” value (Na+/I- symporter [3]; [6]) of the same molecule?
**A.** The value was “further increases”.

**Q.** And the “time following addition of FR901228 at which increased Na+/I- symporter expression was detected” value (Na+/I- symporter [3]; [7])?
**A.** The value was no more than 24 h.

**Q.** And the “effect on luciferase activity in TK luc-transfected cells” value [4]?
**A.** The value was “no effect”.

**Q.** What about the “time after FR901228 at which increased TG expression was first observed” value (thyroglobulin; ATC cells) of the same molecule?
**A.** The value was 48 h.

**Q.** What about the “TG expression after 72 hours” value (thyroglobulin; [5]) of the same molecule?
**A.** Its value is “further increases”.

**Q.** And the “TG expression after 72 hours” value (thyroglobulin; [6])?
**A.** The value was “further increases”.

**Q.** And the “time following addition of FR901228 at which increased TG expression was detected” value (thyroglobulin; [7])?
**A.** Its value is no more than 24 h.

**Q.** `[O-][Cl+3]([O-])([O-])O` [sodium perchlorate] was tested. Which “inhibition of iodine (125I) accumulation” value (Na+/I- symporter [2]; FR901228-treated thyroid carcinoma cells, perchlorate 30 and 100 μM) did it give?
**A.** The value was “inhibited in a dose-dependent manner”.
